Results: patent publication US12509444B2, “Compounds and methods for CD73 modulation and indications therefor” (Plexxikon Inc., priority 2019, dated 2025)
pIC50: −log10 of the molar value.

Key:
[1] = molecular target: T1, Human CD73 (amino acid residues 27-549) (Homo sapiens, UniProt P21589); experiment: CD73 enzymatic assay (luciferase-based indirect assay, CellTiter-Glo); format: biochemical; settings: 0.4 nM CD73, 150 μM AMP, 1 hour at room temperature
T1 construct: Human CD73 (amino acid residues 27-549); His tag (N); made in house; host or cells: E. coli
T1 sequence (P21589 27-549): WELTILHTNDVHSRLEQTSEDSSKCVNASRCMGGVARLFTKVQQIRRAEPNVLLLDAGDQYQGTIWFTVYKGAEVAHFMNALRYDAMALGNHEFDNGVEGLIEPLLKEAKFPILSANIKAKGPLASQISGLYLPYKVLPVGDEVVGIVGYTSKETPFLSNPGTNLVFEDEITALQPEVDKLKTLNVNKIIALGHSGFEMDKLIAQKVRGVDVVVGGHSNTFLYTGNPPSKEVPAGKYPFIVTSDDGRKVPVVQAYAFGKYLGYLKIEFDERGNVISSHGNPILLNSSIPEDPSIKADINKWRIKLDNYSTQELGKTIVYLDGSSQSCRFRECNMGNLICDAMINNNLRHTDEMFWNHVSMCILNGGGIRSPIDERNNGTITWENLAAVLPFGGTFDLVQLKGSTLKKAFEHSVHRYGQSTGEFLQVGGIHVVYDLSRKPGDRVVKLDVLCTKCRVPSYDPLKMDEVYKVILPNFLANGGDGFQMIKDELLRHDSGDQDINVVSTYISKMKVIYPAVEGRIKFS
Summary of the method: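 His-tagged human CD73 (27-549) from E. coli, 0.4 nM, with 150 μM AMP in 50 mM HEPES pH 7.4, 0.01% Tween 20; 1 h at room temperature. AMP remaining read by CellTiter-Glo 2.0 luminescence with 1 μM final ATP after 30 min. IC50 from nonlinear regression of % inhibition.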

[2] = molecular target: T2, human CD73 (Homo sapiens, UniProt P21589); experiment: Inhibitor activity against CD73 in cell based assay (CD73 expressing CHO-K1 cells); settings: CHO-K1 cells expressing human CD73, 150 μM AMP, 4 hours of incubation; read-out: CHO-K1 CELL VARIANT: CD73 IC50
T2 construct: expressed in transfected cells
T2 sequence (P21589 27-549): T1 sequence (P21589 27-549)
Summary of the method: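 Stably transfected CHO-K1 cells expressing human CD73 (1×10^4/well) incubated 4 h with compound (8-point 1:3 titration, top 10 μM final, 0.2% DMSO) and 150 μM AMP. Residual AMP in supernatant measured by CellTiter-Glo luminescence with 1 μM ATP after 30 min at room temperature; IC50 by nonlinear regression of percent inhibition vs high/low controls.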

Row | Compound | pIC50 [1] | pIC50 [2]
1 | O=C(NC1CCN(C(=O)Nc2ccccc2F)CC1)O[C@@H]1CCN(c2cn[nH]c(=O)c2Cl)C1 [P-0390, (R)-1-(5-chloro-6-oxo-1,6-dihydropyridazin-4-yl)pyrrolidin-3-yl (1-((2-fluorophenyl)carbamoyl)piperidin-4-yl)carbamate] | 5.00 to 9.00 | 5.00 to 9.00
2 | O=C(NC1CCCC1)O[C@@H]1CCN(c2cnn(CCO)c(=O)c2Cl)C1 [P-0392, (R)-1-(5-chloro-1-(2-hydroxyethyl)-6-oxo-1,6-dihydropyridazin-4-yl)pyrrolidin-3-yl cyclopentylcarbamate] | 5.00 to 9.00 | 5.00 to 9.00
3 | CN([C@H]1CC[C@H](NC(=O)O[C@@H]2CCN(c3cn[nH]c(=O)c3Cl)C2)CC1)S(C)(=O)=O [P-0394, (R)-1-(5-chloro-6-oxo-1,6-dihydropyridazin-4-yl)pyrrolidin-3-yl ((1r,4R)-4-(N-methylmethylsulfonamido)cyclohexyl)carbamate] | 5.00 to 9.00 | 5.00 to 9.00
4 | O=C(NC1CCCC1)O[C@@H]1CCN(c2cnn(CC(O)CO)c(=O)c2Cl)C1 (stereo partly drawn) [P-0397, (3R)-1-(5-chloro-1-(2,3-dihydroxypropyl)-6-oxo-1,6-dihydropyridazin-4-yl)pyrrolidin-3-yl cyclopentylcarbamate] | 5.00 to 9.00 | 5.00 to 9.00
5 | C[C@H](O)C(=O)N1CCC(NC(=O)O[C@@H]2CCN(c3cn[nH]c(=O)c3Cl)C2)CC1 [P-0399, (R)-1-(5-chloro-6-oxo-1,6-dihydropyridazin-4-yl)pyrrolidin-3-yl (1-((S)-2-hydroxypropanoyl)piperidin-4-yl)carbamate] | 5.00 to 9.00 | 5.00 to 9.00
6 | O=C(NC1CCN(C(=O)c2ccc(F)cc2)CC1)O[C@@H]1CCN(c2cn[nH]c(=O)c2Cl)C1 [P-0404, (R)-1-(5-chloro-6-oxo-1,6-dihydropyridazin-4-yl)pyrrolidin-3-yl (1-(4-fluorobenzoyl)piperidin-4-yl)carbamate] | 5.00 to 9.00 | 5.00 to 9.00
7 | CC1(NC(=O)O[C@@H]2CCN(c3cn[nH]c(=O)c3Cl)C2)CCCC1 [P-0405, (R)-1-(5-chloro-6-oxo-1,6-dihydropyridazin-4-yl)pyrrolidin-3-yl (1-methylcyclopentyl)carbamate] | 5.00 to 9.00 | 5.00 to 9.00
8 | O=C(NC1(C2CCCC2)CC1)O[C@@H]1CCN(c2cn[nH]c(=O)c2Cl)C1 [P-0406, (R)-1-(5-chloro-6-oxo-1,6-dihydropyridazin-4-yl)pyrrolidin-3-yl (1-cyclopentylcyclopropyl) carbamate] | 5.00 to 9.00 | 5.00 to 9.00
9 | O=C(NC1(C2CCCCC2)CC1)O[C@@H]1CCN(c2cn[nH]c(=O)c2Cl)C1 [P-0410, (R)-1-(5-chloro-6-oxo-1,6-dihydropyridazin-4-yl)pyrrolidin-3-yl (1-cyclohexylcyclopropyl) carbamate] | 5.00 to 9.00 | 5.00 to 9.00
10 | N#CCC1(NC(=O)O[C@@H]2CCN(c3cn[nH]c(=O)c3Cl)C2)CCCC1 [P-0411, (R)-1-(5-chloro-6-oxo-1,6-dihydropyridazin-4-yl)pyrrolidin-3-yl (1-(cyanomethyl)cyclopentyl) carbamate] | 5.00 to 9.00 | 5.00 to 9.00
11 | Cc1csc(C2(NC(=O)O[C@@H]3CCN(c4cn[nH]c(=O)c4Cl)C3)CCCC2)n1 [P-0412, (R)-1-(5-chloro-6-oxo-1,6-dihydropyridazin-4-yl)pyrrolidin-3-yl (1-(4-methylthiazol-2-yl)cyclopentyl)carbamate] | 5.00 to 9.00 | 5.00 to 9.00

The next lines start with the values.

Row | pIC50 [1] | pIC50 [2] | Compound
12 | 5.00 to 9.00 | 5.00 to 9.00 | CC1(C)CCC(NC(=O)O[C@@H]2CCN(c3cn[nH]c(=O)c3Cl)C2)C1 (stereo partly drawn) [P-0387, (R)-1-(5-chloro-6-oxo-1,6-dihydropyridazin-4-yl)pyrrolidin-3-yl (3,3-dimethylcyclopentyl)carbamate]
13 | 5.00 to 9.00 | 5.00 to 9.00 | O=C(NC1CCN(C(=O)Nc2ccccc2C(F)(F)F)CC1)O[C@@H]1CCN(c2cn[nH]c(=O)c2Cl)C1 [P-0388, (R)-1-(5-chloro-6-oxo-1,6-dihydropyridazin-4-yl)pyrrolidin-3-yl (1-((2-(trifluoromethyl)phenyl)carbamoyl)piperidin-4-yl) carbamate]
14 | 5.00 to 9.00 | 5.00 to 9.00 | O=C(NC1CCN(C(=O)Nc2ccc(C(F)(F)F)cc2)CC1)O[C@@H]1CCN(c2cn[nH]c(=O)c2Cl)C1 [P-0389, (R)-1-(5-chloro-6-oxo-1,6-dihydropyridazin-4-yl)pyrrolidin-3-yl (1-((4-(trifluoromethyl)phenyl)carbamoyl)piperidin-4-yl) carbamate]
15 | 5.00 to 9.00 | 5.00 to 9.00 | O=C(NC1CCN(C(=O)Nc2cccc(F)c2)CC1)O[C@@H]1CCN(c2cn[nH]c(=O)c2Cl)C1 [P-0391, (R)-1-(5-chloro-6-oxo-1,6-dihydropyridazin-4-yl)pyrrolidin-3-yl (1-((3-fluorophenyl)carbamoyl)piperidin-4-yl)carbamate]
16 | 5.00 to 9.00 | 5.00 to 9.00 | O=C(N[C@H]1CC[C@H](NS(=O)(=O)c2cnn(C3CCCC3)c2)CC1)O[C@@H]1CCN(c2cn[nH]c(=O)c2Cl)C1 [P-0393, (R)-1-(5-chloro-6-oxo-1,6-dihydropyridazin-4-yl)pyrrolidin-3-yl ((1r,4R)-4-((1-cyclopentyl-1H-pyrazole)-4-sulfonamido)cyclohexyl) carbamate]
17 | 5.00 to 9.00 | 5.00 to 9.00 | N#Cc1c(N2CC[C@@H](OC(=O)NC3CCCC3)C2)cn[nH]c1=O [P-0395, (R)-1-(5-cyano-6-oxo-1,6-dihydropyridazin-4-yl)pyrrolidin-3-yl cyclopentylcarbamate]
18 | 5.00 to 9.00 | 5.00 to 9.00 | CCn1cc(S(=O)(=O)N[C@H]2CC[C@H](NC(=O)O[C@@H]3CCN(c4cn[nH]c(=O)c4Cl)C3)CC2)cn1 [P-0396, (R)-1-(5-chloro-6-oxo-1,6-dihydropyridazin-4-yl)pyrrolidin-3-yl ((1r,4R)-4-((1-ethyl-1H-pyrazole)-4-sulfonamido)cyclohexyl) carbamate]
19 | 5.00 to 9.00 | 5.00 to 9.00 | O=C(NC1CC1)N[C@H]1CC[C@@H](NC(=O)O[C@@H]2CCN(c3cnn(CCO)c(=O)c3Cl)C2)CC1 [P-0398, (R)-1-(5-chloro-1-(2-hydroxyethyl)-6-oxo-1,6-dihydropyridazin-4-yl)pyrrolidin-3-yl ((1s,4S)-4-(3-cyclopropylureido)cyclohexyl) carbamate]
20 | 5.00 to 9.00 | 5.00 to 9.00 | C[C@@H](O)C(=O)N1CCC(NC(=O)O[C@@H]2CCN(c3cn[nH]c(=O)c3Cl)C2)CC1 [P-0400, (R)-1-(5-chloro-6-oxo-1,6-dihydropyridazin-4-yl)pyrrolidin-3-yl (1-((R)-2-hydroxypropanoyl)piperidin-4-yl)carbamate]
21 | 5.00 to 9.00 | 5.00 to 9.00 | O=C(NC1CCN(C(=O)C2CCCO2)CC1)O[C@@H]1CCN(c2cn[nH]c(=O)c2Cl)C1 (stereo partly drawn) [P-0401, (R)-1-(5-chloro-6-oxo-1,6-dihydropyridazin-4-yl)pyrrolidin-3-yl (1-(tetrahydrofuran-2-carbonyl)piperidin-4-yl)carbamate]
22 | 5.00 to 9.00 | 5.00 to 9.00 | O=C(NC1CCN(C(=O)c2ccccc2F)CC1)O[C@@H]1CCN(c2cn[nH]c(=O)c2Cl)C1 [P-0402, (R)-1-(5-chloro-6-oxo-1,6-dihydropyridazin-4-yl)pyrrolidin-3-yl (1-(2-fluorobenzoyl)piperidin-4-yl)carbamate]
23 | 5.00 to 9.00 | 5.00 to 9.00 | O=C(NC1CCN(C(=O)c2ccccc2C(F)(F)F)CC1)O[C@@H]1CCN(c2cn[nH]c(=O)c2Cl)C1 [P-0403, (R)-1-(5-chloro-6-oxo-1,6-dihydropyridazin-4-yl)pyrrolidin-3-yl (1-(2-(trifluoromethyl)benzoyl)piperidin-4-yl)carbamate]
24 | 5.00 to 9.00 | 5.00 to 9.00 | O=C1CC2CCC(C1)C2NC(=O)O[C@@H]1CCN(c2cn[nH]c(=O)c2Cl)C1 (stereo partly drawn) [P-0407, (R)-1-(5-chloro-6-oxo-1,6-dihydropyridazin-4-yl)pyrrolidin-3-yl (3-oxobicyclo[3.2.1]octan-8-yl)carbamate]
25 | 5.00 to 9.00 | 5.00 to 9.00 | CCC1(NC(=O)O[C@@H]2CCN(c3cn[nH]c(=O)c3Cl)C2)CCCC1 [P-0408, (R)-1-(5-chloro-6-oxo-1,6-dihydropyridazin-4-yl)pyrrolidin-3-yl (1-ethylcyclopentyl)carbamate]
26 | 5.00 to 9.00 | 5.00 to 9.00 | CS(=O)(=O)N[C@H]1CC[C@H](NC(=O)O[C@@H]2CCN(c3cnn(CC(O)CO)c(=O)c3Cl)C2)CC1 (stereo partly drawn) [P-0409, (3R)-1-(5-chloro-1-(2,3-dihydroxypropyl)-6-oxo-1,6-dihydropyridazin-4-yl)pyrrolidin-3-yl ((1r,4R)-4-(methylsulfonamido)cyclohexyl)carbamate]
